# In PubChem BioAssay AID1963861 (Molecular Pharmacology Branch, DTP, NCI, 2024):
# Tested on: 885724-159-R-J1-PDC KRAS PDC multicell spheroid viability
# Test: Anticancer human tumor 885724-159-R-J1-PDC patient-derived pancreatic adenocarcinoma cell line growth inhibition [KRAS2]
# Conditions: for viability, T/C: stronger effect = lower value
# Outline: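 Combination screen of spheroid viability in tumor-cell co-cultures with endothelial (HUVEC) and mesenchymal stem cell stroma. Each agent was tested in half-log dilutions, topping at clinical Cmax or at 10 microM without a known Cmax.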
# [1] = curve of first compound, second compound 0.1 µM
# [2] = curve of first compound, second compound 0.316 µM
# [3] = curve of first compound, second compound 1 µM
# [4] = curve of first compound, second compound 3.16 µM
# [5] = second compound 0.1 µM, first compound 0.0316 µM
# [6] = second compound 0.1 µM, first compound 0.1 µM
# [7] = second compound 0.1 µM, first compound 0.316 µM
# [8] = second compound 0.1 µM, first compound 1 µM
# [9] = second compound 0.1 µM, first compound 3.16 µM
# [10] = second compound 0.1 µM, first compound 10 µM
# [11] = second compound 0.316 µM, first compound 0.0316 µM
# [12] = second compound 0.316 µM, first compound 0.1 µM
# [13] = second compound 0.316 µM, first compound 0.316 µM
# [14] = second compound 0.316 µM, first compound 1 µM
# [15] = second compound 0.316 µM, first compound 3.16 µM
# [16] = second compound 0.316 µM, first compound 10 µM
# [17] = second compound 1 µM, first compound 0.0316 µM
# [18] = second compound 1 µM, first compound 0.1 µM
# [19] = second compound 1 µM, first compound 0.316 µM
# [20] = second compound 1 µM, first compound 1 µM
# [21] = second compound 1 µM, first compound 3.16 µM
# [22] = second compound 1 µM, first compound 10 µM
# [23] = second compound 3.16 µM, first compound 0.0316 µM
# [24] = second compound 3.16 µM, first compound 0.1 µM
# [25] = second compound 3.16 µM, first compound 0.316 µM
# [26] = second compound 3.16 µM, first compound 1 µM
# [27] = second compound 3.16 µM, first compound 3.16 µM
# [28] = second compound 3.16 µM, first compound 10 µM
# [29] = curve of first compound, second compound 10 µM
# [30] = second compound 0.1 µM, first compound 0.000316 µM
# [31] = second compound 0.1 µM, first compound 0.001 µM
# [32] = second compound 0.1 µM, first compound 0.00316 µM
# [33] = second compound 0.1 µM, first compound 0.01 µM
# [34] = second compound 0.316 µM, first compound 0.000316 µM
# [35] = second compound 0.316 µM, first compound 0.001 µM
# [36] = second compound 0.316 µM, first compound 0.00316 µM
# [37] = second compound 0.316 µM, first compound 0.01 µM
# [38] = second compound 1 µM, first compound 0.000316 µM
# [39] = second compound 1 µM, first compound 0.001 µM
# [40] = second compound 1 µM, first compound 0.00316 µM
# [41] = second compound 1 µM, first compound 0.01 µM
# [42] = second compound 3.16 µM, first compound 0.000316 µM
# [43] = second compound 3.16 µM, first compound 0.001 µM
# [44] = second compound 3.16 µM, first compound 0.00316 µM
# [45] = second compound 3.16 µM, first compound 0.01 µM
# [46] = second compound 10 µM, first compound 0.000316 µM
# [47] = second compound 10 µM, first compound 0.001 µM
# [48] = second compound 10 µM, first compound 0.00316 µM
# [49] = second compound 10 µM, first compound 0.01 µM
# [50] = second compound 10 µM, first compound 0.0316 µM
# [51] = second compound 10 µM, first compound 0.1 µM
# 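Also: spheroids exposed to agents for 7 days before readout.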
compound,measurement,setting,value
CC1(C)CCC(CN2CCN(c3ccc(C(=O)NS(=O)(=O)c4ccc(NCC5CCOCC5)c([N+](=O)[O-])c4)c(Oc4cnc5[nH]ccc5c4)c3)CC2)=C(c2ccc(Cl)cc2)C1 + C=CC(=O)N1CCN(c2nc(OCC3CCCN3C)nc3c2CCN(c2cccc4cccc(C)c24)C3)CC1CC#N,IC50,"curve of first compound, second compound 0.0316 µM",4250 nM
same,IC50,[1],5180 nM
same,IC50,[2],3280 nM
same,IC50,[3],3850 nM
same,IC50,[4],339 nM
same,"viability, T/C","second compound 0.0316 µM, first compound 0.0316 µM",99.3%
same,"viability, T/C","second compound 0.0316 µM, first compound 0.1 µM",100%
same,"viability, T/C","second compound 0.0316 µM, first compound 0.316 µM",108%
same,"viability, T/C","second compound 0.0316 µM, first compound 1 µM",101%
same,"viability, T/C","second compound 0.0316 µM, first compound 3.16 µM",64.8%
same,"viability, T/C","second compound 0.0316 µM, first compound 10 µM",7.81%
same,"viability, T/C",[5],115%
same,"viability, T/C",[6],100%
same,"viability, T/C",[7],93.1%
same,"viability, T/C",[8],107%
same,"viability, T/C",[9],80.5%
same,"viability, T/C",[10],9.45%
same,"viability, T/C",[11],100%
same,"viability, T/C",[12],99.8%
same,"viability, T/C",[13],94.8%
same,"viability, T/C",[14],100%
same,"viability, T/C",[15],51.3%
same,"viability, T/C",[16],9.84%
same,"viability, T/C",[17],86.1%
same,"viability, T/C",[18],97.8%
same,"viability, T/C",[19],87.3%
same,"viability, T/C",[20],84.5%
same,"viability, T/C",[21],59%
same,"viability, T/C",[22],6.08%
same,"viability, T/C",[23],55.2%
same,"viability, T/C",[24],55%
same,"viability, T/C",[25],43.9%
same,"viability, T/C",[26],35.8%
same,"viability, T/C",[27],0.97%
same,"viability, T/C",[28],0.63%
CC(=O)OC12COC1CC(O)C1(C)C(=O)C(O)C3=C(C)C(OC(=O)C(O)C(NC(=O)OC(C)(C)C)c4ccccc4)CC(O)(C(OC(=O)c4ccccc4)C21)C3(C)C (configuration not stated),"viability, T/C",compound 0.01 µM,88.4% [middle of 5 runs]
same,"viability, T/C",compound 0.0316 µM,93.2% [middle of 5 runs]
same,"viability, T/C",compound 0.1 µM,102% [middle of 5 runs]
same,"viability, T/C",compound 1 µM,112% [middle of 5 runs]
same,IC50,curve of compound,> 3160 nM
Cn1ncnc1[C@H]1c2n[nH]c(=O)c3cc(F)cc(c23)N[C@@H]1c1ccc(F)cc1 + CC1OCC2(CCN(c3cnc(Sc4ccnc(N)c4Cl)c(N)n3)CC2)C1N,IC50,[1],> 100 nM
same,IC50,[2],> 100 nM
same,IC50,[3],> 100 nM
same,IC50,[4],> 100 nM
same,IC50,[29],> 100 nM
same,"viability, T/C",[30],84.8%
same,"viability, T/C",[31],86.1%
same,"viability, T/C",[32],85.2%
same,"viability, T/C",[33],87.9%
same,"viability, T/C",[5],78.5%
same,"viability, T/C",[6],78.7%
same,"viability, T/C",[34],76.4%
same,"viability, T/C",[35],78%
same,"viability, T/C",[36],78.2%
same,"viability, T/C",[37],79.1%
same,"viability, T/C",[11],71.8%
same,"viability, T/C",[12],69.7%
same,"viability, T/C",[38],78.6%
same,"viability, T/C",[39],74.5%
same,"viability, T/C",[40],71.4%
same,"viability, T/C",[41],68.5%
same,"viability, T/C",[17],69.2%
same,"viability, T/C",[18],73.6%
same,"viability, T/C",[42],70.1%
same,"viability, T/C",[43],72.6%
same,"viability, T/C",[44],69.8%
same,"viability, T/C",[45],67%
same,"viability, T/C",[23],62.5%
same,"viability, T/C",[24],58.8%
same,"viability, T/C",[46],62.7%
same,"viability, T/C",[47],65.5%
same,"viability, T/C",[48],64.8%
same,"viability, T/C",[49],59.9%
same,"viability, T/C",[50],61.7%
same,"viability, T/C",[51],61.4%
COc1cc(Nc2ncc3c(n2)-c2ccc(Cl)cc2C(c2c(F)cccc2OC)=NC3)ccc1C(=O)O + COc1cc2nc(C)nc(NC(C)c3cc(N)cc(C(F)(F)F)c3)c2cc1OC1CCOC1,IC50,[1],> 10000 nM
same,IC50,[2],> 10000 nM
same,IC50,[3],> 10000 nM
same,IC50,[4],> 10000 nM
same,IC50,[29],88.3 nM
same,"viability, T/C",[5],110%
same,"viability, T/C",[6],99.3%
same,"viability, T/C",[7],90.9%
same,"viability, T/C",[8],105%
same,"viability, T/C",[9],106%
same,"viability, T/C",[10],108%
same,"viability, T/C",[11],114%
same,"viability, T/C",[12],96.4%
same,"viability, T/C",[13],90.7%
same,"viability, T/C",[14],96.1%
same,"viability, T/C",[15],102%
same,"viability, T/C",[16],105%
same,"viability, T/C",[17],108%
same,"viability, T/C",[18],102%
same,"viability, T/C",[19],101%
same,"viability, T/C",[20],93.7%
same,"viability, T/C",[21],108%
same,"viability, T/C",[22],107%
same,"viability, T/C",[23],98.8%
same,"viability, T/C",[24],96.8%
same,"viability, T/C",[25],92.3%
same,"viability, T/C",[26],92.5%
same,"viability, T/C",[27],97.5%
same,"viability, T/C",[28],114%
same,"viability, T/C",[50],83.4%
same,"viability, T/C",[51],45.5%
same,"viability, T/C","second compound 10 µM, first compound 0.316 µM",44%
same,"viability, T/C","second compound 10 µM, first compound 1 µM",45.6%
same,"viability, T/C","second compound 10 µM, first compound 3.16 µM",62.9%
same,"viability, T/C","second compound 10 µM, first compound 10 µM",30.3%
CC(C)n1nc(-c2ccc3oc(N)nc3c2)c2c(N)ncnc21 + C=CC(=O)N1CCN(c2nc(=O)n(-c3c(C)ccnc3C(C)C)c3nc(-c4c(O)cccc4F)c(F)cc23)C(C)C1,IC50,[1],37 nM
same,IC50,[2],38 nM
same,IC50,[3],24 nM
same,IC50,[4],13.7 nM
same,IC50,[29],3.9 nM
same,"viability, T/C",[30],97.8%
same,"viability, T/C",[31],82.4%
same,"viability, T/C",[32],74.6%
same,"viability, T/C",[33],61%
same,"viability, T/C",[5],50.5%
same,"viability, T/C",[6],42.7%
same,"viability, T/C",[34],98.8%
same,"viability, T/C",[35],82.9%
same,"viability, T/C",[36],72.2%
same,"viability, T/C",[37],63.9%
same,"viability, T/C",[11],51.2%
same,"viability, T/C",[12],41.6%
same,"viability, T/C",[38],98.4%
same,"viability, T/C",[39],77.6%
same,"viability, T/C",[40],68.8%
same,"viability, T/C",[41],58.3%
same,"viability, T/C",[17],47.9%
same,"viability, T/C",[18],40.2%
same,"viability, T/C",[42],112%
same,"viability, T/C",[43],77.4%
same,"viability, T/C",[44],68.3%
same,"viability, T/C",[45],51.5%
same,"viability, T/C",[23],43.7%
same,"viability, T/C",[24],40.4%
same,"viability, T/C",[46],74.7%
same,"viability, T/C",[47],59%
same,"viability, T/C",[48],49.9%
same,"viability, T/C",[49],46.1%
same,"viability, T/C",[50],40.1%
same,"viability, T/C",[51],32.9%
COc1cc(OC)cc(N(CCNC(C)C)c2ccc3ncc(-c4cnn(C)c4)nc3c2)c1,"viability, T/C",compound 0.0316 µM,103% [middle of 5 runs]
same,"viability, T/C",compound 0.1 µM,104% [middle of 5 runs]
same,"viability, T/C",compound 0.316 µM,109% [middle of 5 runs]
same,"viability, T/C",compound 1 µM,121% [middle of 5 runs]
same,"viability, T/C",compound 3.16 µM,142% [middle of 5 runs]
same,"viability, T/C",compound 10 µM,16.8% [middle of 5 runs]
same,IC50,curve of compound,6.96 µM [middle of 5 runs]
